Test results from ChEMBL document CHEMBL4000233, “Synthesis and evaluation of 5-(1H-indol-3-yl)-N-aryl-1,3,4-oxadiazol-2-amines as Bcl-2 inhibitory anticancer agents” (Bioorg Med Chem Lett, 2017).

Experiments:
KG-1a = assay: Cytotoxicity against human KG1a cells assessed as growth inhibition after 24 hrs by CellTiter Blue assay; type: functional, cell-based
MDA-MB-231 = assay: Cytotoxicity against human MDA-MB-231 cells assessed as growth inhibition after 72 hrs by MTT assay; type: functional, cell-based; conditions: MDA-MB-231, 72 h
Jurkat = assay: Cytotoxicity against human Jurkat cells assessed as growth inhibition after 24 hrs by CellTiter Blue assay; type: functional, cell-based
HeLa = assay: Cytotoxicity against human HeLa cells assessed as growth inhibition after 72 hrs by MTT assay; type: functional, cell-based
[1] = biological target: Apoptosis regulator Bcl-2 (Homo sapiens, UniProt P10415); assay: Inhibition of biotinylated Bim peptide binding to His-tagged Bcl-2 (unknown origin) preincubated for 1 hr followed by biotinylated Bim peptide addition measured after 2 hrs by ELISA
Sequence of Apoptosis regulator Bcl-2 (P10415 whole entry): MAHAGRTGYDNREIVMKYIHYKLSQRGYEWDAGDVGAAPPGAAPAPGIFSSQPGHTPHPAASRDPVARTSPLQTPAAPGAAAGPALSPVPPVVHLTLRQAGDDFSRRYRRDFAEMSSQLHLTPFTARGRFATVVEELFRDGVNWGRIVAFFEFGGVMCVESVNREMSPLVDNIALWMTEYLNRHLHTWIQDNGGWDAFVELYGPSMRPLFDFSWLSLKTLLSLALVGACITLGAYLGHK

Row | Compound | IC50 (KG-1a) [µM] | IC50 (MDA-MB-231) [µM] | IC50 (Jurkat) [µM] | IC50 (HeLa) [µM] | IC50 [1] [µM]
1 | Clc1ccc(Nc2nnc(-c3c[nH]c4ccccc34)o2)cc1 | 3.16 | 9.77 | 30.2 | 3.8 | 
2 | Clc1ccc(Nc2nnc(-c3c[nH]c4ccccc34)o2)cc1Cl | 45.3 | 31.1 | > 100 | 19.3 | 
3 | Cc1ccc(Nc2nnc(-c3c[nH]c4ccccc34)o2)cc1 | 4 | 27.2 | > 100 | 15.8 | 21.1
4 | O=[N+]([O-])c1ccccc1Nc1nnc(-c2c[nH]c3ccccc23)o1 | 0.85 | 0.9 | 30.2 | 0.3 | 1.24
5 | Clc1cccc(Nc2nnc(-c3c[nH]c4ccccc34)o2)c1 | 32.7 | 8.89 | > 100 | 5.6 | 0.66
6 | Fc1ccc(Nc2nnc(-c3c[nH]c4ccccc34)o2)cc1 | 21.1 | > 100 | > 100 | > 100 | 
7 | O=[N+]([O-])c1cccc(Nc2nnc(-c3c[nH]c4ccccc34)o2)c1 | 25.5 | 34.6 | > 100 | 15.1 | 
8 | O=[N+]([O-])c1ccc(Nc2nnc(-c3c[nH]c4ccccc34)o2)cc1 | 0.89 | 3.54 | 45 | 1.76 | 3.83
9 | COc1ccc(Nc2nnc(-c3c[nH]c4ccccc34)o2)cc1 | 0.82 | 10.1 | > 100 | 5.82 | 29
10 | c1ccc(CNc2nnc(-c3c[nH]c4ccccc34)o2)cc1 | > 100 | 6.47 | > 100 | 7.81 | 
